Data taken from a compilation of properties of binary mixtures (doi:10.1039/b819795b).

Experiment: xn = mol fraction of the nth substance listed
Conditions: 101 kPa

CCCCCCCC[n+]1ccn(C)c1.F[P-](F)(F)(F)(F)F + CCCCCCC
speed of sound [m/s]
Conditions	x2 = 0	x2 = 0.0074	x2 = 0.0516	x2 = 0.0803
293.15 K	1424	1421	1406	–
298.15 K	1408	–	1391	1381
303.15 K	–	1391	–	1366

CCCCCCCC[n+]1ccn(C)c1.F[P-](F)(F)(F)(F)F + CCCCCC
speed of sound [m/s]
Conditions	x2 = 0	x2 = 0.0468	x2 = 0.0712	x2 = 0.0893	x2 = 0.1268
293.15 K	1424	1408	1401	1394	–
298.15 K	1408	1393	1385	–	1364
303.15 K	1393	1378	–	1364	1349

CCCCCCC + CCCCCCCC[n+]1ccn(C)c1.F[P-](F)(F)(F)(F)F
x1 = 1
Conditions	speed of sound [m/s]
293.15 K	1153
298.15 K	1131
303.15 K	1110

CCCCCCCC[n+]1ccn(C)c1.F[P-](F)(F)(F)(F)F + CC(C)O
speed of sound [m/s]
Conditions	293.15 K	298.15 K	303.15 K
x1 = 0.0004	1156	1140	1121
x1 = 0.0009	1157	1140	1122
x1 = 0.0014	1157	–	1122
x1 = 0.0024	1158	1141	1123
x1 = 0.003	1158	1141	1123
x1 = 0.0053	–	1142	1125
x1 = 0.0098	–	–	1128
x2 = 0	1424	1408	1393
x2 = 0.0069	–	1407	1393
x2 = 0.0965	1412	1397	1384
x2 = 0.2012	1395	1382	1368
x2 = 0.304	1379	1366	–
x2 = 0.4009	1364	1351	1339
x2 = 0.4943	1340	–	–
x2 = 0.5989	1310	1296	–
x2 = 0.6487	–	1279	1267
x2 = 0.6964	–	1261	1252
x2 = 0.7469	–	–	1235

CC(C)O + CCCCCCCC[n+]1ccn(C)c1.F[P-](F)(F)(F)(F)F
Conditions	speed of sound [m/s]
293.15 K, x1 = 1	1156

CCCCCC + CCCCCCCC[n+]1ccn(C)c1.F[P-](F)(F)(F)(F)F
x1 = 1
Conditions	speed of sound [m/s]
293.15 K	1100
298.15 K	1078
